Measurements reported in patent US7375125B2, “Melanocortin-4 receptor binding compounds and methods of use thereof” (Ore Pharmaceuticals, Inc., priority 1999, dated 2008).
Counter-ions that a name gives are not always drawn.

System: lean C57BL/6J mice
Test: In vivo assay for MC4-R antagonist activity: food intake of food deprived lean mice treated with MT II
Conditions: 15 nmol intracerebroventricular prior to MT II 0.05 nmol, six hour period (FIGS. 2, 3)
Protocol: The following in vivo assay was used to test the effects of MC4-R antagonists on mice.
Male lean C57BL/6J mice were individually housed in macrolon cages (22±2 C.°; 12:12 h light/dark cycle with lights off at 6 pm). Tap water and mouse chow diet were given ad libitum. Mice were stereotaxically implanted with a chronic guide cannula aimed to the third ventricle (intracerabroventricular) one week prior to testing.
In this experiment, food deprived lean mice were injected intracerabroventricularly with either Compound N or Compound O, at a dose of 15 nmol prior to injection of MT II at the dose of 0.05 nmol.

SMILES: COc1ccc([N+](=O)[O-])cc1CSc1ccccc1C1=NCCCN1 [N, 2-[2-(2-Methoxy-5-nitro-benzylsulfanyl)-phenyl]-1,4,5,6-tetrahydro-pyrimidine; hydrobromide]
- effect on food intake of mice treated with the MC4-R agonist MT II: partially reverses the effect

SMILES: c1ccc(C2=NCCCN2)c(SCc2cccc3ccccc23)c1 [O, 2-[2-(Naphthalen-1-ylmethylsulfanyl)-phenyl]-1,4,5,6-tetrahydro-pyrimidine; hydrochloride]
- effect on food intake of mice treated with the MC4-R agonist MT II: did not significantly effect the food intake
